In article doi:10.1101/2021.10.07.463234v2 (biorxiv, 2021):
Several values for one entry are separate records, joined by “and”; a condition that tells them apart may be missing. Equal values may be shown once. Read-outs that look alike come from different tables or passages of the source.

Key:
SARS-CoV-2 Mac1 [1] = molecular target: T1, SARS-CoV-2 Mac1 (Severe acute respiratory syndrome coronavirus 2, UniProt P0DTD1); experiment: biochemical; conditions: read-out: %inhibition
SARS-CoV-2 Mac1 [2] = molecular target: T1, SARS-CoV-2 Mac1; experiment: biochemical; conditions: for inhibition at 100 µM: read-out: %inhibition
human MacroD2 = human MacroD2 (Homo sapiens, UniProt A1Z1Q3); experiment: ADPr-Glo luminescence ADP-ribosylhydrolase assay; format: biochemical
SARS-CoV-2 Mac1 [3] = molecular target: T1, SARS-CoV-2 Mac1; experiment: biochemical

Sequence of human MacroD2 (A1Z1Q3 whole entry): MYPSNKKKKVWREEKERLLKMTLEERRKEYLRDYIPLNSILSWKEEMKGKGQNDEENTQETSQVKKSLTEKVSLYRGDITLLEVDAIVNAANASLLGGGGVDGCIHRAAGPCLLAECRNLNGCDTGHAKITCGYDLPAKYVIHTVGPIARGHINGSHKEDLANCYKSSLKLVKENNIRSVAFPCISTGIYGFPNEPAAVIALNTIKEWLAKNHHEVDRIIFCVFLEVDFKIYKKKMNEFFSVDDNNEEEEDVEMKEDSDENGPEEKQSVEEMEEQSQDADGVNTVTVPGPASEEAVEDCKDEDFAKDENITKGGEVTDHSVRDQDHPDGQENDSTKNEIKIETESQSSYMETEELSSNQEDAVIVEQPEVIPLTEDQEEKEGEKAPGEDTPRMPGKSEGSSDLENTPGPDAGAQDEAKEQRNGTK

Work on Oc1ncnc2[nH]ncc12 [Allopurinol] yielded an inhibition at 100 µM (SARS-CoV-2 Mac1 [1]) of 37% and an inhibition at 100 µM (SARS-CoV-2 Mac1 [2]) of 0%.

O=C1c2c(O)ccc(O)c2C(=O)c2c(NCCNCCO)ccc(NCCNCCO)c21 [Mitoxantrone] showed an inhibition at 100 µM (SARS-CoV-2 Mac1 [1]) of 53%.

Cc1ccc(O)c(N=Nc2ccccc2)n1 [SIB 1757] gave an inhibition at 100 µM (SARS-CoV-2 Mac1 [1]) of 79%.

NNc1nnc(NN)c2ccccc12 [dihydralazine] gave an IC50 (human MacroD2) of 0.5 to 1.83 mM and an IC50 (SARS-CoV-2 Mac1 [3]) of 485 to 757 µM.

N#C/C(=C\c1ccc(O)c(O)c1)C(=O)NCCCNC(=O)/C(C#N)=C/c1ccc(O)c(O)c1 [Tyrphostin AG 537] showed an inhibition at 100 µM (SARS-CoV-2 Mac1 [1]) of 54%.

In the case of Cc1nc(Nc2ncc(C(=O)Nc3c(C)cccc3Cl)s2)cc(N2CCN(CCO)CC2)n1 [dasatinib], the IC50 (human MacroD2) is reported as greater than 2 mM, the IC50 (SARS-CoV-2 Mac1 [3]) is reported as 37.5 to 57.5 µM and the “%inhibition” value (SARS-CoV-2 Mac1 [2]; 100 µM, inhibitor) is reported as 66.44% and 68.55%. The inhibition at 100 µM (SARS-CoV-2 Mac1 [2]) was 78.6%.
